pIC50: −log10 of the molar value.
Legend:
menin protein = target: T1, menin protein (Homo sapiens, UniProt O00255); assay: Fluorescence polarization (FP) competitive binding assay, menin binding affinity; conditions: FP competition with FAM-MM2 probe 2 nM, menin 4 nM, 30 minutes room temperature
T1 sequence (O00255 1-610): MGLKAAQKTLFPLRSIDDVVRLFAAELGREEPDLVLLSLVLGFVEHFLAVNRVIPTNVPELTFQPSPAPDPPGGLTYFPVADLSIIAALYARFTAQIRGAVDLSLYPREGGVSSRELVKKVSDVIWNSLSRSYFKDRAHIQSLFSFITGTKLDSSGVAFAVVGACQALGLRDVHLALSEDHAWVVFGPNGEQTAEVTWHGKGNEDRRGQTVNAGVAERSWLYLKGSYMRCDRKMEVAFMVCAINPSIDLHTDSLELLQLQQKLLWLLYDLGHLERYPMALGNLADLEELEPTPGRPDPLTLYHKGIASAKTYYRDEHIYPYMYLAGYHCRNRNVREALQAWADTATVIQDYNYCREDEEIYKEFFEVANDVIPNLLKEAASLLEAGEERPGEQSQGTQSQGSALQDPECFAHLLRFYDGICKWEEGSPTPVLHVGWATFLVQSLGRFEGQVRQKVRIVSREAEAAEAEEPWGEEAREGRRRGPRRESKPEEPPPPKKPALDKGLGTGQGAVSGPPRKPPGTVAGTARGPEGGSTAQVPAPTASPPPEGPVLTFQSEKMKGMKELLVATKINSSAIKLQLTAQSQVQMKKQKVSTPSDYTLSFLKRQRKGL
Description: A fluorescence polarization (FP) competitive binding assay was used to determine the binding affinities of representative menin inhibitors. A FAM labeled fluorescent probe was designed and synthesized based on a MLL1 peptide (FAM-MM2). Equilibrium dissociation constant (Kd) value of FAM-MM2 to menin protein was determined from protein saturation experiments by monitoring the total fluorescence polarization of mixtures composed with the fluorescent probe at a fixed concentration and the protein with increasing concentrations up to full saturation. Serial dilutions of the protein were mixed with FAM-MM2 to a final volume of 200 μl in the assay buffer (PBS with 0.02% Bovine γ-Globulin and 4% DMSO. 0.01% Triton X-100 was added right before assays). Final FAM-MM2 concentration was 2 nM. Plates were incubated at room temperature for 30 minutes with gentle shaking to assure equilibrium. FP values in millipolarization units (mP) were measured using the Infinite M-1000 plate reader (Tecan U.S., Research Triangle Park, N.C.) in Microfluor 1 96-well, black, v-bottom plates (Thermo Scientific, Waltham, Mass.) at an excitation wavelength of 485 nm and an emission wavelength of 530 nm.
The IC50 of representative Compounds of the Disclosure, see Table 3, were determined in a competitive binding experiment. Mixtures of 5 μl of the tested compounds in DMSO and 195 μl of preincubated protein/probe complex solution in the assay buffer were added into assay plates which were incubated at room temperature for 30 minutes with gentle shaking. Final concentration of the menin protein was 4 nM, and final probe concentration is 2 nM. Negative controls containing protein/probe complex only (equivalent to 0% inhibition), and positive controls containing only free probes (equivalent to 100% inhibition), were included in each assay plate. FP values were measured as described above. IC50 values were determined by nonlinear regression fitting of the competition curves.

MV4-11 = assay: 7-day proliferation assay (WST-8), cell growth inhibition; format: cell-based; conditions: Homo sapiens, MV4-11, 168 h, MV4-11 cells, 7 days
Description: The effect of representative Compounds of the Disclosure on cell viability was determined in a 7-day proliferation assay. Cells were maintained in the appropriate culture medium with 10% FBS at 37° C. and an atmosphere of 5% CO2.
Cells were seeded in 96-well flat bottom (Corning COSTAR, Corning, NY, cat#3595) at a density of 2,000-3,000 cells/well in 100 μl of culture medium. Compounds were serially diluted in the appropriate medium, and […] the diluted compounds were added to the appropriate wells of the cell plate. After the addition of compounds, the cells were incubated at 37° C. in an atmosphere of 5% CO2 for 7 days. Cell viability was determined using the WST (2-(2-methoxy-4-nitrophenyl)-3-(4-nitrophenyl)-5-(2,4-disulfophenyl)-2H-tetrazolium, monosodium salt) Cell Counting-8 Kit (Dojindo Molecular Technologies, Inc., Rockville, Md.) according to the manufacturers' instructions.
WST-8 reagent was added to each well at a final concentration of 10% (v/v), and then the plates were incubated at 37° C. for 1-2 hours for color development. The absorbance was measured at 450 nm using a SPECTRAmax PLUS plate reader (Molecular Devices, Sunnyvale, Calif.). The readings were normalized to the DMSO-treated cells and the half maximal inhibitory concentration (IC50) was calculated by nonlinear regression (four parameters sigmoid fitted with variable slope, least squares fit, and no constraint) analysis using the GraphPad Prism 5 software (GraphPad Software, La Jolla, Calif.).

SMILES	pIC50 (menin protein)	IC50 (MV4-11) [nM]
COC(=O)N[C@H]1CCC[C@@H]1[C@](CN1CCC1)(c1cc(F)cc(F)c1)C1CCN(CC2(F)CN(c3ccc(S(=O)(=O)C4CN(C(=O)/C=C/CN(C)C)C4)cc3)C2)CC1 [Cpd. No. 11, methyl ((1S,2R)-2-((S)-2-(azetidin-1-yl)-1-(3,5-difluorophenyl)-1-(1-((1-(4-((1-((E)-4-(dimethylamino)but-2-enoyl)azetidin-3-yl)sulfonyl)phenyl)-3-fluoroazetidin-3-yl)methyl)piperidin-4-yl)ethyl)cyclopentyl)carbamate]	8.70	
C=CC(=O)N1CCC[C@@H](S(=O)(=O)c2ccc(N3CC(CN4CCC([C@@](C#N)(c5cccc(F)c5)[C@H]5CCC[C@@H]5NC(=O)OC)CC4)C3)cc2)C1 [compound 201]		< 500
CC#CC(=O)N1CC[C@@H](S(=O)(=O)c2ccc(N3CC(O)(CN4CCC([C@@](CN5CCC5)(c5cccc(F)c5)[C@H]5CCC[C@@H]5NC(=O)OC)CC4)C3)c(F)c2)C1 [compound 202]		< 10
CC#CC(=O)N1CC(S(=O)(=O)c2ccc(N3CC(O)(CN4CCC([C@@](CN5CCC5)(c5cccc(F)c5)[C@H]5CCC[C@@H]5NC(=O)OC)CC4)C3)cc2)C1 [compound 203]		< 10
COC(=O)N[C@H]1CCC[C@@H]1[C@](CN1CCC1)(c1cccc(F)c1)C1CCN(CC2CN(c3ccc(S(=O)(=O)[C@@H]4CCCN(C(=O)/C=C/CN5CCCCC5)C4)cc3)C2)CC1 [compound 204]		< 50
CC#CC(=O)N1CC(S(=O)(=O)c2ccc(N3CC(O)(CN4CCC([C@@](CNC(C)=O)(c5cccc(F)c5)[C@H]5CCC[C@@H]5NC(=O)OC)CC4)C3)cc2)C1 [compound 207]		< 100
C=CC(=O)N1CC[C@@H](S(=O)(=O)c2ccc(N3CC(CN4CCC([C@@](CN5CCC5)(c5cccc(F)c5)[C@H]5CCC[C@@H]5NC(=O)OC)CC4)C3)cc2CN2CC(F)C2)C1 [compound 209]		< 50
CC#CC(=O)N1CC[C@@H](S(=O)(=O)c2ccc(N3CC(CN4CCC([C@@](CN5CCC5)(c5cccc(F)c5)[C@H]5CCC[C@@H]5NC(=O)OC)CC4)C3)cc2CN2CC(F)C2)C1 [compound 210]		< 50
C=CC(=O)N1CCC[C@@H](S(=O)(=O)c2ccc(N3CC(C)(CN4CCC([C@@](CN5CCC5)(c5cccc(F)c5)[C@H]5CCC[C@@H]5NC(=O)OC)CC4)C3)cc2)C1 [compound 211]		< 50

More lines, now with the values ahead:

pIC50 (menin protein)	IC50 (MV4-11) [nM]	SMILES
8.70		C=CC(=O)N1CC(S(=O)(=O)c2ccc(N3CC(CN4CCC([C@@](CN(C)C)(c5cccc(F)c5)[C@H]5CCC[C@@H]5NC(=O)OC)CC4)C3)cc2)C1 [Cpd. No. 1, methyl ((1S,2R)-2-((S)-1-(1-((1-(4-((1-acryloylazetidin-3-yl)sulfonyl)phenyl)azetidin-3-yl)methyl)piperidin-4-yl)-2-(dimethylamino)-1-(3-fluorophenyl)ethyl)cyclopentyl)carbamate]
8.70		COC(=O)N[C@H]1CCC[C@@H]1[C@](CN1CCCCC1)(c1cccc(F)c1)C1CCN(CC2CN(c3ccc(S(=O)(=O)C4CN(C(=O)/C=C/CN(C)C)C4)cc3)C2)CC1 [Cpd. No. 4, methyl ((1S,2R)-2-((S)-1-(1-((1-(4-((1-((E)-4-(dimethylamino)but-2-enoyl)azetidin-3-yl)sulfonyl)phenyl)azetidin-3-yl)methyl)piperidin-4-yl)-1-(3-fluorophenyl)-2-(piperidin-1-yl)ethyl)cyclopentyl)carbamate]
8.70		COC(=O)N[C@H]1CCC[C@@H]1[C@](CN1CCOCC1)(c1cccc(F)c1)C1CCN(CC2CN(c3ccc(S(=O)(=O)C4CN(C(=O)/C=C/CN(C)C)C4)cc3)C2)CC1 [Cpd. No. 6, methyl ((1S,2R)-2-((S)-1-(1-((1-(4-((1-((E)-4-(dimethylamino)but-2-enoyl)azetidin-3-yl)sulfonyl)phenyl)azetidin-3-yl)methyl)piperidin-4-yl)-1-(3-fluorophenyl)-2-morpholinoethyl)cyclopentyl)carbamate]
8.70		COC(=O)N[C@H]1CCC[C@@H]1[C@](CN1CCC(C)(O)CC1)(c1cccc(F)c1)C1CCN(CC2CN(c3ccc(S(=O)(=O)C4CN(C(=O)/C=C/CN(C)C)C4)cc3)C2)CC1 [Cpd. No. 8, methyl ((1S,2R)-2-((S)-1-(1-((1-(4-((1-((E)-4-(dimethylamino)but-2-enoyl)azetidin-3-yl)sulfonyl)phenyl)azetidin-3-yl)methyl)piperidin-4-yl)-1-(3-fluorophenyl)-2-(4-hydroxy-4-methylpiperidin-1-yl)ethyl)cyclopentyl)carbamate]
8.52		C=C(CN(C)C)C(=O)N1CC(S(=O)(=O)c2ccc(N3CC(CN4CCC([C@@](CN5CCC5)(c5cccc(F)c5)[C@H]5CCC[C@@H]5NC(=O)OC)CC4)C3)cc2)C1 [Cpd. No. 10, methyl ((1S,2R)-2-((S)-2-(azetidin-1-yl)-1-(1-((1-(4-((1-(2-((dimethylamino)methyl)acryloyl)azetidin-3-yl)sulfonyl)phenyl)azetidin-3-yl)methyl)piperidin-4-yl)-1-(3-fluorophenyl)ethyl)cyclopentyl)carbamate]
8.70		C=CC(=O)N1CC(S(=O)(=O)c2ccc(N3CC(CN4CCC([C@@](CN5CCC5)(c5cccc(F)c5)[C@H]5CCC[C@@H]5NC(=O)OC)CC4)C3)cc2)C1 [Cpd. No. 14, methyl ((1S,2R)-2-((S)-1-(1-((1-(4-((1-acryloylazetidin-3-yl)sulfonyl)phenyl)azetidin-3-yl)methyl)piperidin-4-yl)-2-(azetidin-1-yl)-1-(3-fluorophenyl)ethyl)cyclopentyl)carbamate]
8.52		C#CC(=O)N1CC(S(=O)(=O)c2ccc(N3CC(CN4CCC([C@@](CN5CCC5)(c5cccc(F)c5)[C@H]5CCC[C@@H]5NC(=O)OC)CC4)C3)cc2)C1 [Cpd. No. 15, methyl ((1S,2R)-2-((S)-2-(azetidin-1-yl)-1-(3-fluorophenyl)-1-(1-((1-(4-((1-propioloylazetidin-3-yl)sulfonyl)phenyl)azetidin-3-yl)methyl)piperidin-4-yl)ethyl)cyclopentyl)carbamate]
8.52		C=CC(=O)N1CC(S(=O)(=O)c2ccc(N3CC(F)(CN4CCC([C@@](CN5CCC5)(c5cccc(F)c5)[C@H]5CCC[C@@H]5NC(=O)OC)CC4)C3)cc2)C1 [Cpd. No. 16, methyl ((1S,2R)-2-((S)-1-(1-((1-(4-((1-acryloylazetidin-3-yl)sulfonyl)phenyl)-3-fluoroazetidin-3-yl)methyl)piperidin-4-yl)-2-(azetidin-1-yl)-1-(3-fluorophenyl)ethyl)cyclopentyl)carbamate]
8.70		C=C(CN1CCC(O)CC1)C(=O)N1CC(S(=O)(=O)c2ccc(N3CC(CN4CCC([C@@](CN5CCC5)(c5cccc(F)c5)[C@H]5CCC[C@@H]5NC(=O)OC)CC4)C3)cc2)C1 [Cpd. No. 23, methyl ((1S,2R)-2-((S)-2-(azetidin-1-yl)-1-(3-fluorophenyl)-1-(1-((1-(4-((1-(2-((4-hydroxypiperidin-1-yl)methyl)acryloyl)azetidin-3-yl)sulfonyl)phenyl)azetidin-3-yl)methyl)piperidin-4-yl)ethyl)cyclopentyl)carbamate]
